Measurements as given in US12139742B2, “Devices, systems, and methods for preparing a standardized inoculum for antimicrobial susceptibility testing” (Avails Medical, Inc., priority 2020, dated 2024).

Tests used:
[1] = test system: KOx harboring the KPC-3 gene; test: Disk diffusion AST, single isolate with major error; type: cell-based, Klebsiella oxytoca
Method: (§1) The first set was prepared using the presently disclosed method 1700 (sample preparation time: between 60 minutes and 180 minutes) and the second set was prepared using traditional microbial subculturing techniques (sample preparation time: between 18 hours to 24 hours). The testing was conducted using the automated VITEK®2 GN81 AST platform (see Table 1) and manual Kirby-Bauer disk diffusion (see Table 2).

[2] = test system: 23 different positive blood culture (PBC) samples comprising seven different species of bacteria; test: VITEK 2 GN81 automated AST of 0.5 McFarland inocula (present method vs traditional subculture); type: cell-based; settings: for # I: number of isolates deemed intermediate (I); for # R: number of isolates deemed resistant (R); for # S: number of isolates deemed susceptible (S)
Method: (§2) Both the present method 1700 and traditional microbial subculturing techniques were used to prepare standardized 0.5 McFarland inocula for AST using Kirby-Bauer disk diffusion (see Table 1) and the automated VITEK2 GN81 AST platform (see Table 2).
(§3) Two sets of standardized 0.5 McFarland inocula were prepared from 23 different positive blood culture (PBC) samples comprising seven different species of bacteria. The 23 PBC samples included six samples of Escherichia coli (ECo), two samples of Enterobacter cloacae (ECl), three samples of Klebsiella pneumoniae (KPn), four samples of Klebsiella oxytoca (KOx), two samples of Citrobacter freundii (CFr), four samples of Serratia marcescens (SMa), and two samples of Klebsiella aerogenes (KAe).
as §1

[3] = test system: 23 different positive blood culture (PBC) samples comprising seven different species of bacteria; test: Kirby-Bauer disk diffusion AST of 0.5 McFarland inocula (present method vs traditional subculture); type: cell-based; settings: for # I: number of isolates deemed intermediate (I); for # R: number of isolates deemed resistant (R); for # S: number of isolates deemed susceptible (S)
From the text: The standardized inoculum 1726 (e.g., the 0.5 McFarland inoculum) can then be used directly for antimicrobial susceptibility testing using manual disk diffusion or diluted further for automated AST platforms. For example, the standardized inoculum 1726 prepared using the method 1700 and system 1702 disclosed herein can be subjected to manual Kirby-Bauer disk diffusion AST or an automated AST platform such as the VITEK®2 platform.
as §2, §3, §1
In total, 296 minimum inhibitory concentrations (MICs) from the VITEK®2 GN81 platform and 224 zone sizes on disk diffusion were evaluated.

[4] = inoculum prepared using the present method 1700

Row | Molecule | susceptibility category ([1]; control 0.5 McFarland inoculum) | zone size ([1]; control 0.5 McFarland inoculum) [mm] | susceptibility category [1, 4] | zone size [1, 4] [mm] | # I [2] | # R [2] | # S [2] | # I [3] | # R [3] | # S [3]
1 | C[C@@H](O)[C@H]1C(=O)N2C(C(=O)O)=C(S[C@@H]3CN[C@H](C(=O)N(C)C)C3)[C@H](C)[C@H]12 [Meropenem] | susceptible | 23 | resistant | 19 |  |  |  |  |  | 
2 | Amoxicillin-Clavulanic acid |  |  |  |  | 1 | 6 | 6 | 0 | 7 | 6
3 | Gentamicin |  |  |  |  | 1 | 2 | 20 | 1 | 2 | 20
4 | Piperacillin-tazobactam |  |  |  |  | 1 | 3 | 5 | 1 | 3 | 14
5 | Trimethoprim-sulfamethoxazole |  |  |  |  | 0 | 6 | 11 |  |  | 
